In data set [1] the test system is cytochrome p450 IA1 (CYPIAI) gene expression. The data set can be described thus: Northern analysis of CYPIAI induction in BEP2D cells. Format: cell-based, human. To be noted: 10 μM, varying times, vs 0.1% DMSO control. The method, then: (§1) In a second set of experiments, multiplex competitive reverse transcriptase polymerase chain reaction (MC RT-PCR) with competitive templates were prepared by the Celi method to evaluate the cytochrome p450 (CYP) IAI gene in β-napthoflavone-exposed BEP2D cells. The induction of CYPIAI gene expression was evaluated using both MC RT-PCR with Celi competitive templates, and Northern analysis. Competitive templates were prepared for both the CYPIAI and GAPDH genes. The primers used to prepare the competitive template for GAPDH were: […]
RNA from BEP2D cells incubated for varying times with […] (10 μM) was either electrophoresed on a 1% LE formaldehyde denaturing gel for Northern analysis or MC RT-PCR amplified, as described above. For Northern analysis, following transfer of the RNA to GeneScreen, the filters were hybridized with ^32P-labeled CYPIAI cDNA.
FIG. 36A illustrates Northern analysis of RNA obtained from BEP2D cells that were treated with 0.1% DMSO as a control, or, β-napthoflavone in an effort to induce cytochrome p450 IA1 (CYPIAI). FIG. 36B illustrates DNA PCR-amplified from serial dilutions of cDNA from the same cells used in FIG. 36SA. The cDNA was co-amplified in the presence of competitive templates for GAPDH and CYPIAI, according to some embodiments of the instant invention.

For data set [2] the test system is unchanged. The data set can be described thus: MC RT-PCR with Celi competitive templates, CYPIAI induction in BEP2D cells. Format: cell-based, human. Conditions: 10 μM, exposed vs control cells, about the same cDNA loaded. The method, then: as §1
The PCR amplification conditions were the same as described for experiments using the competitive templates prepared for GAPDH and GSHPx by the Higuchi method except the annealing temperature was 55 degrees centigrade and the amplification was carried out for 38 cycles.
Because the native and competitive templates separate without prior restriction endonuclease digestion, samples were taken directly from the PCR reaction tube and applied to ethidium bromide stained 3% Nusieve, 1% LE agarose gels. It was then possible to quantify the products by taking a negative photograph of the gel using Polaroid 665 positive/negative instant film, subjecting the negative photograph to densitometry. […]

Molecules are shown by their SMILES.

As to `O=c1cc(-c2ccccc2)oc2ccc3ccccc3c12` [β-napthoflavone], in data set [1], the “gene expression of the CYPIAI gene (Northern analysis)” value is listed as “increase”. Besides, in data set [2], the “band representing the native CYPIAI gene (MC RT-PCR, GAPDH reference)” value is given as “much more strongly represented”.

(Values after patent US20060188909A1, “Business methods for assessing nucleic acids” (Medical College of Ohio, priority 2005, published 2006).)
